These results are taken from patent EP0286252A2, “Anti-cancer composition & method featuring cyanine dyes” (DANA FARBER CANCER INSTITUTE, priority 1987, dated 1988).

Data set [1] has as its system CX-1 (human colon carcinoma) and CV-1 (normal monkey epithelial cells). The data set can be described thus: clonogenic in vitro selectivity, IC50 for CV-1 divided by IC50 for CX-1. The data set is classed as cell-based. As to conditions: selectivity: IC50 value for CV-1 divided by value for CX-1. As to the method: That is, cell cultures of CX-1 (human colon carcinoma) and CV-1 (normal monkey epithelial cells) are prepared and treated at various concentrations, in the conventional manner, and the concentration of the dye that inhibits 50% of the cell colony formation is denoted as IC₅₀. This IC₅₀ value is compared for both the CX-1 and CV-1 lines; that is, the value for CV-1 is divided by the value for CX-1. […] This is expressed as a selectivity "S" of 10.
Their generic structure is as follows: [drawing 7]

Data set [2] concerns stomach cancer. The conditions noted are these: treating stomach cancer in Japan; Antibiotics Chemother., Vol. 24 (1978); cited from earlier work.
Data set [3] relates to MB49 tumor cells. The data set can be described thus: mouse bladder carcinoma survival test, dyes given intraperitoneally. It is filed as in vivo, normal male BDF1 mice. As to the method: (§1) Figs. 1-8 are a plot of survival rates of a cancer in an animal model, either treated as per the invention or untreated. In these plots, "% survival" means the % of the total group (treated "T" or control "C") still surviving on the day in question. The 50% data point is selected for the T/C calculation, as being the point that is statistically meaningful.
MB49 tumor cells, that is, mouse carcinoma cells induced by the carcinogen 7,12-dimethylbenz[a]anthracene, were injected intraperitoneally into normal male BDF1 mice (2 X 10⁶/mouse on day 0). Cyanine Dye No. 1 or No. 2, was administered intraperitioneally in the following manner: 0.2 mg/kg on day 1, 0.4 mg/kg on day 2, 0.8 mg/kg on day 3, 1.2 mg/kg on day 4, 1.5 mg/kg on days 8, 12, 16, 20, 24. (No further injection was used thereafter). […] (No further injection was used thereafter.) The control group of 10 mice was treated with equal volume of 5% dextrose as those treated with dye no. 1. The survival rate was calculated as in the previous examples.

Data set [4] relates to CX-1 (human colon carcinoma). The data set can be described thus: clonogenic in vitro study, inhibition of cell colony formation. It is filed as cell-based. The conditions noted are these: concentration of dye that inhibits 50% of cell colony formation, regular lighting conditions of laboratories; for IC50: Homo sapiens. The text has this:
As noted above, one of the advantages of the invention is that the cyanines described herein selectively attack the cancer cells as opposed to normal cells. Although knowledge of the mechanism is not essential to the practice of the invention, it is believed this occurs through the preferential inhibition of oxygen consumption in the mitochondria of the cancer cells. Such selectivity is further shown in clonogenic in vitro studies carried out in conventional fashion. That is, cell cultures of CX-1 (human colon carcinoma) and CV-1 (normal monkey epithelial cells) are prepared and treated at various concentrations, in the conventional manner, and the concentration of the dye that inhibits 50% of the cell colony formation is denoted as IC₅₀. This IC₅₀ value is compared for both the CX-1 and CV-1 lines; that is, the value for CV-1 is divided by the value for CX-1. If the value is 10 µg/ml for CV-1, and 1 µg/ml for CX-1, then the dye is 10 times as effective in killing off the colon carcinoma cells, compared to the monkey epithelial cells. This is expressed as a selectivity "S" of 10.
The selectivity values, and the CX-1 values for four of the cyanines of this invention obtained and tested under regular lighting conditions of laboratories, are listed below in Table I, along with a fifth cyanine used for comparative purposes.

Data set [5] deals with human melanoma cell line, LOX. The data set can be described thus: LOX melanoma survival test, nude mice protocol. The conditions noted are these: for T/C: survival of treated vs untreated control group, 5 million LOX cells IP, IP treatment from day 1, lower dosage schedule for Dye 5. It is filed as in vivo, athymic Swiss nu/nu mice.
Source text: as §1
(§2) In the examples that follow, "nude mice protocol" refers to conventional xenografted human carcinoma or melanoma cells implanted into athymic mice. […] This has been reported in, e.g., the Journal of the National Cancer Institute, Vol. 74, No. 4, p. 899-903, especially p. […] (April 1985).
A human melanoma cell line, LOX, was utilized that grows rapidly when innoculated into the peritoneal cavity of athymic mice. Tumors which had been passaged subcutaneously in athymic mice were excised under sterile conditions and converted to a single cell suspension using a metal grid with a 4 mm mesh. Red blood cells were then lysed by incubation with 0.17 molar ammonium chloride at 4°C for 20 minutes. Cells were then scored for viability with trypan blue and 5 million viable cells made up in 0.1 ml of Dulbecco modified Eagles' medium (DME) were injected intraperitoneally into a group of athymic Swiss nu/nu mice (day 0). The mice were then randomly allocated into treatment and control groups. Treatment, by intraperitoneal injection, commenced the following day (day 1). Mice received dye No. 1 or Dye No. 2 at 1 mg/kg daily for five days followed by 1.5 mg/kg on day 8, 10, 12, 14 and 16, and twice a week at 2 mg/kg thereafter. There were 10 mice in each of the treatment groups and control group. The control group received 5% dextrose solution equal in volume to that of the Dye No. 1 treated group.
In the same experiment, the comparative example 1 was administered to 10 mice using the following schedule: 0.2 mg/kg daily for five days followed by 0.5 mg/kg on day 8, 10, 12, 14 and 16, and twice a week at 1 mg/kg thereafter.
T/C is the ratio, expressed as a percentage, of mean survival age of the treated group, to the mean survival age of the untreated control group.

In data set [6] the test system is OVCAR -3, a human ovarian carcinoma cell line. The data set can be described thus: ovarian carcinoma survival test, nude mice protocol. It is filed as in vivo, athymic Swiss nu/nu mice. The conditions noted are these: survival of treated vs control; ten million OVCAR-3 cells IP; IP treatment; lower dosage schedule for Dye 5.
Source text: as §1, §2
Dye Nos. 1 and 2 were repeated, except the cancer that was treated was OVCAR -3, a human ovarian carcinoma cell line of which ten million cells were injected IP into athymic Swiss nu/nu mice. For Ex. 5, 10 mice received dye 1 by IP injection commenced the day after the cancer injection, and repeated daily at 1.5 mg/kg for four days followed by 2 mg/kg on day 7, 10, 13, 16, 19 and 21, and twice a week at 2 mg/kg thereafter. Ten mice having such injected cancer were selected as a control group and received an equal volume of 5% dextrose as that of the treated group.
For Ex. 6, 10 mice received dye no. […]

`CCN1C(=CC(=Cc2sc3ccccc3[n+]2C)SC)Sc2ccccc21` [compound 6] showed a S in data set [1] of 37.5.
As for `COc1cccc2c1C(=O)c1c(O)c3c(c(O)c1C2=O)C[C@@](O)(C(=O)CO)C[C@@H]3O[C@H]1C[C@H](N)[C@H](O)[C@H](C)O1` [Adriamycin], the effective response rate in data set [2] is on record as 14.5%.
With `CCCN1C(=CC=Cc2sc3ccccc3[n+]2CCC)Sc2ccccc21` [Dye No. 5, 3-propyl-2-[3-(3-propyl-4-benzothia-zolin-2-ylidene)-1-propen-1-yl]benzothiazolium iodide], the “outcome of treatment (verdict in words)” value in data set [3] (MB49 mouse bladder carcinoma, IP) is recorded as “failure”. Moreover, the “CX-1 Value” in data set [4] (listed as 3) was “.004 µg/mL”. In addition, in data set [5] (LOX-bearing athymic mice, IP, dosage schedule of Dye No. 1 (1 mg/kg daily for five days, then 1.5 and 2 mg/kg)), the “toxicity at the dosage of Dye No. 1” value is on record as “killed the mice before the 50% survival point of the control could be reached”. This compound gave a T/C in data set [5] (listed as 3) of 168%.
As to `CN1C(=CC=Cc2sc3ccccc3[n+]2C)Sc2ccccc21` [compound 1], in data set [4], the IC50 came to 5 ng/mL.
Same read-out and setting: next, `CCN1C(=CC=Cc2sc3ccccc3[n+]2CC)Sc2ccccc21` [compound 2]: 5 ng/mL.
Consider `CCCN1C(=CC=Cc2sc3ccccc3[n+]2CCC)Sc2ccccc21` [compound 5], for which the T/C in data set [3] (survival of treated vs control, 2 X 10^6 MB49 cells/mouse IP, IP treatment, lower dosage schedule for dye No. 5) amounted to 113%; in data set [5], 128%; in data set [6] it was 138%. The “CX-1 Value” in data set [4] is “.009 µg/mL”. Also, the S in data set [1] is 22.
`CCN1C(=CC=c2sc(=Cc3sc4c([n+]3CC)CCCC4)n(CC)c2=O)Oc2ccccc21` [compound 4]: the IC50 in data set [4] is 50 ng/mL. Further, in data set [1], the S was 100. Further, the T/C in data set [5] was determined as 166%.
Regarding `CN1C(=CC=Cc2sc3ccccc3[n+]2C)Sc2ccccc21` [Dye No. 1, 3-methyl-2-[3-(3-methyl-4-benzo-thiazolin-2-ylidene)-1-propen-1-yl]-benzo-thiazolium chloride], in data set [5], the T/C amounted to 205%.
`CCC(=Cc1oc2ccccc2[n+]1CC)C=C1Sc2ccccc2N1CC` [compound 7] displayed a S in data set [1] of 33.3.
In turn, `CCN1C(=CC=Cc2sc3ccccc3[n+]2CC)Sc2ccccc21` [Dye No. 2, 3-ethyl-2-[3-(3-ethyl-4-benzothia-zolin-2-ylidene)-1-propen-1-yl]-benzothiazolium iodide] displayed a T/C in data set [5] of 176%.

In general, T/C refers to the result in the treated group divided by that in the control group, in per cent. For orientation: IC50 means the midpoint of a concentration-inhibition curve.
